Assay results published in patent US20240392315A1, “COMPOSITION FOR CELL ADDITION” (priority 2021, published 2024).
Where two headings read alike, the source gives them in different places.

How the values were obtained:
HEK293 cells [1] = system: HEK293 cells
HEK293 cells [2] = format: cell-based, human
AAV2-producing cells = system: AAV2-producing cells
Method: In order to identify metabolic changes that occurred in AAV2-producing cells when ethanol was added and important factors, intracellular proteins were extracted from cells with and without addition of ethanol during AAV2 production, the extracted proteins were analyzed by liquid chromatography-mass spectrometry (LC-MS) and proteins whose expression increased or decreased during AAV2 production due to the presence or absence of ethanol addition were analyzed.

HEK293 cells [3] = conditions: for Full rate / AAV2 particle number: ethanol 0.56 v/v %, AAV2 produced in cells
Method: AAV2 particles (whole particles with and without AAV2 genome) extracted from the culture supernatant and producing cells were measured using a commercially available AAV2 ELISA kit (PROGENE, AAV2 Titration ELISA) and according to the instructions of the kit.
The proportion (Full rate) of AAV2 particles containing the integrated AAV2 genome was calculated from the total number of AAV2 particles quantified by the ELISA method and the quantitative value of particles containing the integrated AAV2 genome obtained from ddPCR.

HEK293 cells [4] = conditions: for culture supernatant genome titer / cell lysate genome titer / cell lysate genome integrity / culture supernatant genome integrity: ethanol 0.28 v/v %; for culture supernatant genome titer: 3 days after transfection
Description: In the same manner as in Example 1, “1.

[5] = 48 and 72 hours after transfection of plasmid DNA for AAV2 production
[6] = 48 hr, protein vs control (no ethanol addition)
[7] = 72 hr, protein vs control (no ethanol addition)
[8] = Downregulated pathway when ethanol was added, time after transfection
[9] = Upregulated pathway when ethanol was added, time after transfection

Method for Hela cells: AAV2 was extracted from the culture supernatant and producing cells and an AAV2 solution was prepared. Three days after adding the AAV2 solution to cultured Hela cells, the number of cells expressing the GFP protein derived from the added AAV2 was measured, and the number of cells infected by the AAV2 solution per mL was calculated.

C[S+](C)[O-] [DMSO, dimethyl sulfoxide]
TFday 3 VCD (HEK293 cells [1]; test (5), additive 0.57 v/v %, day 3 after transfection, control 4.17E+06): 4.58E+06 cells/mL | TF day 3 Viability (HEK293 cells [1]; test (5), additive 0.57 v/v %, day 3 after transfection, control 78.5): 81.5% | cell growth and substance production (HEK293 cells [1]; when the concentration is low): improving | improving integrity of the genome in produced AAV2 and genome titer (productivity) (HEK293 cells [2]; DMSO, Table 8): effective | genome titer (HEK293 cells [2]; test (5), additive 0.57 v/v %, AAV2 produced in cells, control 2.40E+07): 3.35E+07 vg/μL | genome integrity (HEK293 cells [2]; test (5), additive 0.57 v/v %, AAV2 produced in cells, control 53.4): 59.3%

OCC(O)CO [Glycerol, glycerol]
genome titer (HEK293 cells [2]; test (3), additive 0.73 v/v %, AAV2 in cells, 3 days after transfection, control 2.26E+07): 4.50E+07 vg/μL | genome integrity (HEK293 cells [2]; test (3), additive 0.73 v/v %, AAV2 in cells, control 51.9): 58.9% | genome titer (HEK293 cells [2]; test (4), additive 0.38 v/v %, AAV2 in cells, control 2.40E+07): 2.78E+07 vg/μL | genome integrity (HEK293 cells [2]; test (4), additive 0.38 v/v %, AAV2 in cells, control 53.4): 55.2% | genome titer (HEK293 cells [2]; test (4), additive 1.15 v/v %, AAV2 in cells, control 2.40E+07): 3.66E+07 vg/μL | genome integrity (HEK293 cells [2]; test (4), additive 1.15 v/v %, AAV2 in cells, control 53.4): 58.5%

CC(C)O [Isopropanol, isopropanol]
genome titer (HEK293 cells [2]; test (4), additive 0.61 v/v %, AAV2 in cells, control 2.40E+07): 2.26E+07 vg/μL | genome integrity (HEK293 cells [2]; test (4), additive 0.61 v/v %, AAV2 in cells, control 53.4): 58.5%

CO [Methanol, methanol]
genome titer (HEK293 cells [2]; test (4), additive 0.33 v/v %, AAV2 in cells, control 2.40E+07): 2.94E+07 vg/μL | genome integrity (HEK293 cells [2]; test (4), additive 0.33 v/v %, AAV2 in cells, control 53.4): 58.4%

CCO [ethanol]
infection titer (infecting cells and expressing GFP per volume of lysate) (Hela cells; AAV2 vector produced with ethanol addition vs control, Table 4): high | infection titer (Hela cells; ethanol 0.56 v/v %, intracellular AAV2 extract, same amount of genome titer, control 1.36E+08): 1.63E+08 ifu/mL | pathway change, CLEAR Signaling Pathway (AAV2-producing cells; [5]): activated | pathway change, Estrogen Receptor Signaling (AAV2-producing cells; [5]): activated | pathway change, Interferon Signaling (AAV2-producing cells; [5]): suppressed | pathway change, NAD Signaling (AAV2-producing cells; [5]): activated | pathway change, Necroptosis Signaling Pathway (AAV2-producing cells; [5]): suppressed | pathway change, Protein Kinase A Signaling (AAV2-producing cells; [5]): activated | pathway change, Role of Hypercytokinemia/hyperchemokinemia in the Pathogenesis of influenza (AAV2-producing cells; [5]): suppressed | pathway change, Superpathway of Cholesterol Biosynthesis (AAV2-producing cells; [5]): activated | Fold Change CAPN5 (AAV2-producing cells; [6]): 2.10 | Fold Change DUSP9 (AAV2-producing cells; [6]): −1.30 | Fold Change GLUL (AAV2-producing cells; [6]): −1.80 | Fold Change GNG2 (AAV2-producing cells; [6]): 1.75 | Fold Change GNPTG (AAV2-producing cells; [6]): −1.59 | Fold Change H1-4 (AAV2-producing cells; [6]): −1.33 | Fold Change HPS5 (AAV2-producing cells; [6]): 100 | Fold Change IFI35 (AAV2-producing cells; [6]): 100 | Fold Change IFIT1 (AAV2-producing cells; [6]): −1.60 | Fold Change IFIT3 (AAV2-producing cells; [6]): −1.73 | Fold Change IFITM3 (AAV2-producing cells; [6]): 1.19 | Fold Change ISG15 (AAV2-producing cells; [6]): −1.77 | Fold Change MED14 (AAV2-producing cells; [6]): 1.16 | Fold Change MERTK (AAV2-producing cells; [6]): 1.44 | Fold Change MITF (AAV2-producing cells; [6]): −1.33 | Fold Change NAGLU (AAV2-producing cells; [6]): 100 | Fold Change NGFR (AAV2-producing cells; [6]): 2.60 | Fold Change NPRL3 (AAV2-producing cells; [6]): 100 | Fold Change PKN (paxillin) (AAV2-producing cells; [6]): −1.31 | Fold Change PRKAG2 (AAV2-producing cells; [6]): 100 | Fold Change SMAD3 (AAV2-producing cells; [6]): 100 | Fold Change TIMM10 (AAV2-producing cells; [6]): −8.00 | Fold Change TNIP1 (AAV2-producing cells; [6]): −100 | Fold Change TRPM1 (AAV2-producing cells; [6]): −2.58 | Fold Change BAX (AAV2-producing cells; [7]): 1.11 | Fold Change CAPN5 (AAV2-producing cells; [7]): 1.51 | Fold Change CCL5 (AAV2-producing cells; [7]): −1.79 | Fold Change DHCR24 (AAV2-producing cells; [7]): −1.03 | Fold Change DXO (AAV2-producing cells; [7]): 100 | Fold Change FADD (AAV2-producing cells; [7]): 1.54 | Fold Change GLUL (AAV2-producing cells; [7]): −1.91 | Fold Change GNG2 (AAV2-producing cells; [7]): 1.60 | Fold Change HADHA (AAV2-producing cells; [7]): 1.23 | Fold Change HADHB (AAV2-producing cells; [7]): 1.29 | Fold Change HMGCS1 (AAV2-producing cells; [7]): −1.21 | Fold Change HPS5 (AAV2-producing cells; [7]): 100 | Fold Change IFI35 (AAV2-producing cells; [7]): −100 | Fold Change IFIT1 (AAV2-producing cells; [7]): −1.53 | Fold Change IFIT3 (AAV2-producing cells; [7]): −1.51 | Fold Change INS (AAV2-producing cells; [7]): 1.58 | Fold Change IRE3 (interferon regulatory factor 3) (AAV2-producing cells; [7]): 1.09 | Fold Change ISG15 (AAV2-producing cells; [7]): −1.52 | Fold Change MED6 (AAV2-producing cells; [7]): −100 | Fold Change MED14 (AAV2-producing cells; [7]): 1.07 | Fold Change MITF (AAV2-producing cells; [7]): −1.28 | Fold Change MSMG1 (methylsterol monooxygenase 1) (AAV2-producing cells; [7]): −1.07 | Fold Change MT-CYB (AAV2-producing cells; [7]): 3.49 | Fold Change MT-ND4 (AAV2-producing cells; [7]): −1.65 | Fold Change NAGLU (AAV2-producing cells; [7]): −1.74 | Fold Change NFKB1 (AAV2-producing cells; [7]): 1.07 | Fold Change NGFR (AAV2-producing cells; [7]): 2.35 | Fold Change NTN1 (AAV2-producing cells; [7]): −1.60 | Fold Change POLRZI (RNA polymerase II subunit I) (AAV2-producing cells; [7]): −1.42 | Fold Change PPP1R140 (protein phosphatase 1 regulatory inhibitor subunit 14C) (AAV2-producing cells; [7]): −1.29 | Fold Change PRKAG2 (AAV2-producing cells; [7]): 100 | Fold Change PTPRK (AAV2-producing cells; [7]): −1.31 | Fold Change RAF1 (AAV2-producing cells; [7]): −1.29 | Fold Change RXRA (AAV2-producing cells; [7]): −1.40 | Fold Change SC5D (AAV2-producing cells; [7]): 100 | Fold Change SLC29A1 (AAV2-producing cells; [7]): −1.28 | Fold Change TIMM10 (AAV2-producing cells; [7]): 1.51 | Fold Change TNIP1 (AAV2-producing cells; [7]): −100 | Fold Change TOMM6 (AAV2-producing cells; [7]): 1.63 | Fold Change TOMM7 (AAV2-producing cells; [7]): −1.40 | Fold Change TP53 (AAV2-producing cells; [7]): −1.18 | Regulated timing, Interferon Signaling (AAV2-producing cells; [8]): 48 hr, 72 hr | Regulated timing, Necroptosis Signaling Pathway (AAV2-producing cells; [8]): 48 hr, 72 hr | Regulated timing, Role of Hypercytokinemia/hyperchemokinemia in the Pathogenesis of influenza (AAV2-producing cells; [8]): 72 h | Regulated timing, Activation of IRF by Cytosolic Pattern recognition receptors (AAV2-producing cells; Pathway where change was identified when ethanol was added, time after transfection): 72 h | Regulated timing, CLEAR Signaling Pathway (AAV2-producing cells; [9]): 48 hr, 72 hr | Regulated timing, Estrogen Receptor Signaling (AAV2-producing cells; [9]): 72 h | Regulated timing, NAD Signaling (AAV2-producing cells; [9]): 72 h | Regulated timing, Protein Kinase A Signaling (AAV2-producing cells; [9]): 48 hr, 72 hr | Regulated timing, Superpathway of Cholesterol Biosynthesis (AAV2-producing cells; [9]): 72 h | rate of incorporation of AAV2-derived genome into the produced AAV2 capsid (HEK293 cells [3]; AAV2 produced with addition of ethanol vs control, Table 3): higher | Full rate (HEK293 cells [3]; test (1), control 2.30): 3.58% | AAV2 particle number (HEK293 cells [3]; test (1), control 9.86E+11): 1.41E+12 particles/mL | AAV2 particle number (HEK293 cells [3]; test (2), control 1.04E+12): 1.13E+12 particles/mL | Full rate (HEK293 cells [3]; test (2), control 3.12): 3.38% | culture supernatant genome titer (HEK293 cells [4]; AAV1, control 3.34E+06): 5.09E+06 vg/μL | cell lysate genome titer (HEK293 cells [4]; AAV1, control 2.67E+06): 4.67E+06 vg/μL | cell lysate genome integrity (HEK293 cells [4]; AAV1, control 43.3): 54.2% | culture supernatant genome integrity (HEK293 cells [4]; AAV1, control 49.3): 58.6% | culture supernatant genome titer (HEK293 cells [4]; AAV6, control 1.20E+05): 1.08E+05 vg/μL | cell lysate genome titer (HEK293 cells [4]; AAV6, control 1.60E+07): 2.05E+07 vg/μL | culture supernatant genome integrity (HEK293 cells [4]; AAV6, control 23.7): 28.6% | cell lysate genome integrity (HEK293 cells [4]; AAV6, control 51.8): 55.1% | amount of AAV1 produced (genome titer) and genome integrity, in culture supernatant and within cells (HEK293 cells [4]; when ethanol was added): improved | amount of AAV6 produced within cells (genome titer) (HEK293 cells [4]; when ethanol was added): improved | genome integrity of AAV6 in culture supernatant and within cells (HEK293 cells [4]; when ethanol was added): improved | cell proliferation rate during AAV2 production (HEK293 cells [1]; ethanol amounts where intracellular AAV2 genome titer is higher than control): equivalent to or higher than in the control condition | viability of the producing cells on day 3 after transfection (HEK293 cells [1]; ethanol amounts where intracellular AAV2 genome titer is higher than control, FIG. 1C): maintained higher than in the control condition | genome titer of AAV2 both in cells and in the culture supernatant (HEK293 cells [2]; ethanol 0.09 to 2.2 V/V %, particularly at not exceeding 1.1 v/v %, vs no ethanol, FIG. 1A, 1B): improved | genome integrity (HEK293 cells [2]; ethanol 0.56 v/v %, intracellular AAV2 extract, control 45.6): 54.7% | genome titer (HEK293 cells [2]; ethanol 0.56 v/v %, intracellular AAV2 extract, ddPCR primer for ITR region, control 4.40E+07): 6.59E+07 vg/μL | percentage of integrated genome in AAV2 in the producing cells (HEK293 cells [2]; ethanol added within the range of about 2v/v %, FIG. 2A): clearly higher | proportion of the integrated genome in AAV2 (HEK293 cells [2]; ethanol addition during AAV2 production, FIG. 2A, 2B): improved | genome titer (HEK293 cells [2]; test (1), ethanol 0.56 v/v %, AAV2 produced in cells, control 2.26E+07): 5.05E+07 vg/μL | genome titer (HEK293 cells [2]; test (2), ethanol 0.56 v/v %, AAV2 produced in cells, control 3.23E+07): 3.81E+07 vg/μL
